Several values for one entry are separate records, joined by “and”; a condition that tells them apart may be missing. Identical values can stand only once.
What was measured:
Format in all cases: cell-based
cancer cells = assay: SRB analysis 3, triple combination, summary over cancer panels
Description: (§1) Through SRB analysis (n=3), the effect of triple combination treatment of a CAC inhibitor (KN510: omeprazole), ACAA inhibitor (KN713: trimetazidine) and other anticancer drug on cell growth in the cancer cells was analyzed. (see Table 11).
(§2) The SRB assay was performed as follows: each cell line (100 μl) was seeded into 96-well microtiter plates at densities ranging from 5,000 to 40,000 cells/well depending on the doubling time of each cell line. After 24 hours, drug (100 μl per well) was added to each well and the culture was incubated at 37° C. for 48 hours. Cells were then fixed in 50% TCA (50 μl per well) and plates were incubated at 4° C. for a minimum of 1 hour or a maximum of 3 hours. After that, the liquid was removed from the plate, then rinsed 5 times with water and dried for approximately 12-24 hours at room temperature (RT). After the fixed cells were stained with 0.4% SRB (100 μl per well) for 10 minutes at room temperature, the plates were washed 3 times with 1% glacial acetic acid and dried at room temperature for about 12-24 hours. SRB staining was dissolved in 10 mM Trizma base and absorbance was read at 515 nm. The effect of the drug was expressed as GI50 (50% growth inhibition), TGI (total growth inhibition) or LC50 (lethal concentration). GI50 is the maximum concentration at the moment of 50% inhibition of cell proliferation and IC50 is the concentration of the drug that inhibits the enzyme activity in vitro by 50% in this study.

[1] = tested on: MIA PaCa-2 pancreatic cancer (PDAC) cell line; assay: SRB analysis 3; conditions: 48 hours
Description: as §1, §2

[2] = tested on: ACHN renal cancer cell line; assay: SRB analysis 3; conditions: 48 hours
Description: as §1, §2

[3] = tested on: PC-3 prostate cancer cell line; assay: SRB analysis 3; conditions: 48 hours
Description: as §1, §2

[4] = tested on: OVCAR-8 ovarian cancer cell line; assay: SRB analysis 3; conditions: 48 hours
Description: as §1, §2

A375 melanoma cell line = assay: SRB analysis 3; conditions: 48 hours
Description: as §1, §2

[5] = tested on: UACC62 melanoma cell line; assay: SRB analysis 3; conditions: 48 hours
Description: as §1, §2

[6] = tested on: MCF7 breast cancer cell line; assay: SRB analysis 3; conditions: 48 hours
Description: as §1, §2

[7] = tested on: HCT-116 colon cancer cell line; assay: SRB analysis 3; conditions: 48 hours
Description: as §1, §2

[8] = tested on: SK-hep-1 liver cancer cell line; assay: SRB analysis 3; conditions: 48 hours
Description: as §1, §2

[9] = tested on: Huh-7 liver cancer cell line; assay: SRB analysis 3; conditions: 48 hours
Description: as §1, §2

[10] = tested on: AsPC-1 pancreatic cancer (PDAC) cell line; assay: SRB analysis 3; conditions: 48 hours
Description: as §1, §2

[11] = tested on: AGS gastric cancer cell line; assay: SRB analysis 3; conditions: 48 hours
Description: as §1, §2

[12] = tested on: H1975 non-small cell lung cancer (NSCLC) cell line; assay: SRB analysis 3; conditions: 48 hours
Description: as §1, §2

[13] = tested on: MKN45 gastric cancer cell line; assay: SRB analysis 3; conditions: 48 hours
Description: as §1, §2

[14] = tested on: Caki-1 renal cancer cell line; assay: SRB analysis 3; conditions: 48 hours
Description: as §1, §2

[15] = tested on: A549 non-small cell lung cancer (NSCLC) cell line; assay: SRB analysis 3; conditions: 48 hours
Description: as §1, §2

[16] = tested on: SK-OV-3 ovarian cancer cell line; assay: SRB analysis 3; conditions: 48 hours
Description: as §1, §2

[17] = tested on: DU145 prostate cancer cell line; assay: SRB analysis 3; conditions: 48 hours
Description: as §1, §2

[18] = tested on: MDA-MB-231 breast cancer cell line; assay: SRB analysis 3; conditions: 48 hours
Description: as §1, §2

[19] = tested on: COLO-205 colon cancer cell line; assay: SRB analysis 3; conditions: 48 hours
Description: as §1, §2

[20] = tested on: T87G glioblastoma (GBM) cell line; assay: SRB analysis 3; conditions: Cisplatin 1 μM, 48 hours
Description: as §2, with “Through SRB analysis (n=3), the effect of triple combination treatment of a CAC inhibitor ([…] inhibitor (KN713: trimetazidine) and other anticancer drug on cell growth in the cancer cells was analyzed. (see Table 11). The” for “The”, “nm.” for “nm. The effect of the drug was expressed as GI50 (50% growth inhibition), TGI (total growth inhibition) or LC50 (lethal concentration). GI50 is the maximum concentration at the moment of 50% inhibition of cell proliferation and IC50 is the concentration of the drug that inhibits the enzyme activity in vitro by 50% in this study.”

[21] = tested on: U87MG glioblastoma (GBM) cell line; assay: SRB analysis 3; conditions: Cisplatin 1 μM, 48 hours
Description: as §2, with “Through SRB analysis (n=3), the effect of triple combination treatment of a CAC inhibitor ([…] inhibitor (KN713: trimetazidine) and other anticancer drug on cell growth in the cancer cells was analyzed. (see Table 11). The” for “The”, “nm.” for “nm. The effect of the drug was expressed as GI50 (50% growth inhibition), TGI (total growth inhibition) or LC50 (lethal concentration). GI50 is the maximum concentration at the moment of 50% inhibition of cell proliferation and IC50 is the concentration of the drug that inhibits the enzyme activity in vitro by 50% in this study.”

[22] = tested on: SNU-324 pancreatic cancer cells; assay: SRB analysis 2; conditions: SNU324; KN715 200 μM; 48 hours
Description: (§3) The SRB assay was performed as follows: each cell line (100 μl) was seeded into 96-well microtiter plates at densities ranging from 5,000 to 20,000 cells/well depending on the doubling time of each cell line. After cell seeding, microtiter plates were incubated for 24 h before addition of experimental drug. Drugs were prepared at the indicated concentrations and 100 μl was added to each well; The plates were then incubated in a CO2 incubator. Then, cold TCA was added to terminate the assay. Cells were fixed in situ by gentle addition of 50 μl of cold 50% (w/v) TCA (final concentration: 10% TCA) and incubated at 4° C. for 60 min. The supernatant was discarded and the plate was washed 5 times with tap water and then air dried. A solution (100 μl) of 0.4% (w/v) SRB (Sulforhodamine B) in 1% acetic acid was added to each well, and the plate was left at room temperature for 10 minutes. After staining, the plates were air dried after washing 5 times with 1% acetic acid to remove unbound dye. The bound dye was then solubilized with 10 mM trizma base and the absorbance was recorded at 515 nm using an automated plate reader.

[23] = tested on: BxPC-3 pancreatic cancer cells; assay: SRB analysis 2; conditions: KN715 200 μM, 48 hours
Description: as §3

[24] = tested on: AsPC-1 pancreatic cancer cells; assay: SRB analysis 2; conditions: KN715 200 μM, 48 hours
Description: as §3

[25] = tested on: SU.86.86 pancreatic cancer cells; assay: SRB analysis 2; conditions: KN715 200 μM, 48 hours
Description: as §3

[26] = tested on: MIA PaCa2 pancreatic cancer cells; assay: SRB analysis 2; conditions: MIA PaCa-2; KN715 200 μM; 48 hours
Description: as §3

[27] = Breast Cancer, BT-549, MDA MB 231
[28] = Ovarian Cancer, SK-OV-3, OVCAR-3
[29] = Renal cell carcinoma, ACHN, CAKI-1

O=c1[nH]cc(F)c(=O)[nH]1 [5-FU]
Positive/Negative (triple combination of KN510, KN713 and the listed anticancer drug) (cancer cells; [27]): negative
Positive/Negative (triple combination of KN510, KN713 and the listed anticancer drug) (cancer cells; Colon Cancer, HT-29, COLO-205): Positive
Positive/Negative (triple combination of KN510, KN713 and the listed anticancer drug) (cancer cells; GBM, U87MG, T87G): Positive
Positive/Negative (triple combination of KN510, KN713 and the listed anticancer drug) (cancer cells; Liver Cancer, SNU-449, Huh-7): Positive
Positive/Negative (triple combination of KN510, KN713 and the listed anticancer drug) (cancer cells; NSCLC, A549, H522): Positive
Positive/Negative (triple combination of KN510, KN713 and the listed anticancer drug) (cancer cells; [28]): negative
Positive/Negative (triple combination of KN510, KN713 and the listed anticancer drug) (cancer cells; PDAC, MIA PaCa-2, PANC-1): Positive
Positive/Negative (triple combination of KN510, KN713 and the listed anticancer drug) (cancer cells; Prostate Cancer, PC-3, DU-145): Positive
Positive/Negative (triple combination of KN510, KN713 and the listed anticancer drug) (cancer cells; [29]): Positive
Positive/Negative (triple combination of KN510, KN713 and the listed anticancer drug) (cancer cells; Stomach Cancer, MKN-28, AGS): Positive
Positive/Negative (triple combination of KN510, KN713 and the listed anticancer drug) (cancer cells; melanoma, UACC62, A375): negative
cell growth (Control = 100) ([1]; 5-FU 10 μM): 36.7557
cell growth (Control = 100) ([2]; 5-FU 5 μM): 26.38
cell growth (Control = 100) ([3]; 5-FU 5 μM): 51.6552
cell growth (Control = 100) ([4]; 5-FU 5 μM): 77.83
cell growth (Control = 100) (A375 melanoma cell line; 5-FU 5 μM): 95.91
cell growth (Control = 100) ([5]; 5-FU 5 μM): 59.14
cell growth (Control = 100) ([6]; 5-FU 5 μM): 11.29
cell growth (Control = 100) ([7]; 5-FU 5 μM): 14.62
cell growth (Control = 100) ([8]; 5-FU 5 μM): 149.7317
cell growth (Control = 100) ([9]; 5-FU 5 μM): 34.9345
cell growth (Control = 100) ([10]; 5-FU 10 μM): 64.54
cell growth (Control = 100) ([11]; 5-FU 5 μM): 39.84
cell growth (Control = 100) ([12]; 5-FU 5 μM): 58.333
cell growth (Control = 100) ([13]; MKN45, 5-FU 5 μM): 51.03
cell growth (Control = 100) ([14]; 5-FU 5 μM): 59.41
cell growth (Control = 100) ([15]; 5-FU 5 μM): 28.5
cell growth (Control = 100) ([16]; 5-FU 5 μM): 80.76
cell growth (Control = 100) ([17]; 5-FU 5 μM): 59.63
cell growth (Control = 100) ([18]; 5-FU 5 μM): 73.95
cell growth (Control = 100) ([19]; 5-FU 5 μM): −4.957

N.N.[Cl][Pt][Cl] [Cisplatin]
Positive/Negative (triple combination of KN510, KN713 and the listed anticancer drug) (cancer cells; [27]): negative
Positive/Negative (triple combination of KN510, KN713 and the listed anticancer drug) (cancer cells; Colon Cancer, HT-29, COLO-205): negative
Positive/Negative (triple combination of KN510, KN713 and the listed anticancer drug) (cancer cells; GBM, U87MG, T87G): negative
Positive/Negative (triple combination of KN510, KN713 and the listed anticancer drug) (cancer cells; Liver Cancer, SNU-449, Huh-7): negative
Positive/Negative (triple combination of KN510, KN713 and the listed anticancer drug) (cancer cells; NSCLC, A549, H522): negative
Positive/Negative (triple combination of KN510, KN713 and the listed anticancer drug) (cancer cells; [28]): negative
Positive/Negative (triple combination of KN510, KN713 and the listed anticancer drug) (cancer cells; PDAC, MIA PaCa-2, PANC-1): negative
Positive/Negative (triple combination of KN510, KN713 and the listed anticancer drug) (cancer cells; Prostate Cancer, PC-3, DU-145): negative
Positive/Negative (triple combination of KN510, KN713 and the listed anticancer drug) (cancer cells; [29]): negative
Positive/Negative (triple combination of KN510, KN713 and the listed anticancer drug) (cancer cells; Stomach Cancer, MKN-28, AGS): negative
Positive/Negative (triple combination of KN510, KN713 and the listed anticancer drug) (cancer cells; melanoma, UACC62, A375): negative
cell growth (Control = 100) [20]: 120.49
cell growth (Control = 100) [21]: 87.30
cell growth (Control = 100) ([1]; Cisplatin 1 μM): 95.91
cell growth (Control = 100) ([2]; Cisplatin 1 μM): 118.1147
cell growth (Control = 100) ([3]; Cisplatin 1 μM): 67.15
cell growth (Control = 100) ([4]; Cisplatin 1 μM): 84.76
cell growth (Control = 100) (A375 melanoma cell line; Cisplatin 1 μM): 85.06
cell growth (Control = 100) ([5]; Cisplatin 1 μM): 91.68
cell growth (Control = 100) ([6]; Cisplatin 1 μM): 70.82
cell growth (Control = 100) ([7]; Cisplatin 1 μM): 100.5484
cell growth (Control = 100) ([8]; Cisplatin 1 μM): 136.3148
cell growth (Control = 100) ([9]; Cisplatin 1 μM): 66.69
cell growth (Control = 100) ([10]; Cisplatin 1 μM): 94.84
cell growth (Control = 100) ([11]; Cisplatin 1 μM): 74.02
cell growth (Control = 100) ([12]; Cisplatin 1 μM): 97.49
cell growth (Control = 100) ([13]; MKN-45, Cisplatin 1 μM): 96.28
cell growth (Control = 100) ([14]; Cisplatin 1 μM): 113.4691
cell growth (Control = 100) ([15]; Cisplatin 1 μM): 75.07
cell growth (Control = 100) ([16]; Cisplatin 1 μM): 75.0979
cell growth (Control = 100) ([17]; Cisplatin 1 μM): 60.85
cell growth (Control = 100) ([18]; Cisplatin 1 μM): 93.91
cell growth (Control = 100) ([19]; Cisplatin 1 μM): 83.44

COc1ccccc1OCC(O)CN1CCN(CC(=O)Nc2c(C)cccc2C)CC1 (centres unmarked) [KN715, ranolazine]
degree of cell growth based on the control (100%) [22]: 23.58% and 23.63% and 27.45%
degree of cell growth based on the control (100%) [23]: 46.24% and 45.76% and 59.04%
degree of cell growth based on the control (100%) [24]: 86.53% and 57.91% and 63.15%
degree of cell growth based on the control (100%) [25]: 90.37% and 63.92% and 73.38%
degree of cell growth based on the control (100%) [26]: 87.91% and 65.15% and 73.29%

CCCS(=O)(=O)Nc1ccc(F)c(C(=O)c2c[nH]c3ncc(-c4ccc(Cl)cc4)cc23)c1F [Vermutafenib]
cell growth (Control = 100) (A375 melanoma cell line; Vermutafenib 0.5 μM): 7.77
cell growth (Control = 100) ([5]; Vermutafenib 0.5 μM): 2.10
